In patent US9695154B2, “Heteroaryl inhibitors of sumo activating enzyme” (MILLENNIUM PHARMACEUTICALS, INC., priority 2013, dated 2017):

Target: T1, recombinant human SAE enzyme (Homo sapiens, UniProt Q9UBT2)
T1 sequence (Q9UBT2 1-640): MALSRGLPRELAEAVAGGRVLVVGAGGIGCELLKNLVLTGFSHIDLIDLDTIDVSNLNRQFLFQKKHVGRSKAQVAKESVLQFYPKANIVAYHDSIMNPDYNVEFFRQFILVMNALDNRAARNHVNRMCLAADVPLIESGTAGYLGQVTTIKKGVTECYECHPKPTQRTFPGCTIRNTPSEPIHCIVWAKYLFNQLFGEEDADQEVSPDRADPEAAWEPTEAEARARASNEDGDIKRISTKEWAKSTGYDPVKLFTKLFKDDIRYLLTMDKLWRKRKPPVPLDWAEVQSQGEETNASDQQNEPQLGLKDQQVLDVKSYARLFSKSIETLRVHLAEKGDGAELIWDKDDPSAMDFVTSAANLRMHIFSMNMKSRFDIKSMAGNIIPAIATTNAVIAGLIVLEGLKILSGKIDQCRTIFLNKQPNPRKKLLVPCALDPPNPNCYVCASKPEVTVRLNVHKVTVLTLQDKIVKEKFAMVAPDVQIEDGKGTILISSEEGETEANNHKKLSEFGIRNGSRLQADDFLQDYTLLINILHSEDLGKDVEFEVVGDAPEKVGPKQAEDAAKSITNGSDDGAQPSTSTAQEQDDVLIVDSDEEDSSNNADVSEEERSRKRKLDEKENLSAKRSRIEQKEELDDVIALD
T1 sequence (Q9UBE0 1-346 partner): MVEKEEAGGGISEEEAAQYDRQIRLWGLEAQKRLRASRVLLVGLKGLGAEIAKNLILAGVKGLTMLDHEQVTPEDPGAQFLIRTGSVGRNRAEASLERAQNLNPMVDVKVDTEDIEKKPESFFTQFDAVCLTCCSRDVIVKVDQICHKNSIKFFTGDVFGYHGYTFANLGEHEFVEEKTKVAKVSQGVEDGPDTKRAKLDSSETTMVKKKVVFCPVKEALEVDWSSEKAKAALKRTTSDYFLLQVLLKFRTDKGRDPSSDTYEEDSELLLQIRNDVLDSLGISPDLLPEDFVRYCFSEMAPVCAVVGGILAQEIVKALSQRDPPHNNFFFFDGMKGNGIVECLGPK
Experiment: SAE HTRF Enzyme Assay
Format: biochemical
Settings: for IC50: class symbols A-C; for inhibition at 0.111 µM: compound concentration 0.111 μM, read-out: Percent Inhibition
In short: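 SAE 0.11 nM; ATP 0.5 μM; Sumo-Flag 0.125 μM; Ubc9-GST 0.01 μM; 250 μM GSH, 5 mM MgCl2, pH 7.5. 105 min, 24° C. EDTA/KF stop plus Eu/APC antibodies, 2 h, TR-FRET. % inhibition or IC50.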

| Compound | IC50 [nM] | inhibition at 0.111 µM [%] |
| --- | --- | --- |
| NS(=O)(=O)OC[C@H]1C[C@@H](Nc2ncncc2C(=O)c2ccn(Cc3cc(C(F)(F)F)ccc3Cl)n2)[C@@H](F)[C@@H]1O [Compound I-181, [(1R,2R,3R,4R)-4-{[5-({1-[2-chloro-5-(trifluoromethyl)benzyl]-1H-pyrazol-3-yl}carbonyl)pyrimidin-4-yl]amino}-3-fluoro-2-hydroxycyclopentyl]methyl sulfamate] | < 10 | 94 |
| NS(=O)(=O)OC[C@H]1C[C@@H](Nc2ncncc2C(=O)c2ccn(Cc3ccccc3C(F)(F)F)n2)[C@H](O)[C@@H]1O [Compound I-182, [(1R,2R,3S,4R)-2,3-dihydroxy-4-{[5-({1-[2-(trifluoromethyl)benzy1]-1H-pyrazol-3-yl}carbonyl)pyrimidin-4-yl]amino}cyclopentyl]methyl sulfamate] | < 10 | 96 |
| NS(=O)(=O)OC[C@H]1C[C@@H](Nc2ncncc2C(=O)c2ccn(Cc3ccc(C(F)(F)F)s3)n2)C[C@@H]1O [Compound I-183, [(1R,2S,4R)-2-hydroxy-4-({5-[(1-{[5-(trifluoromethyl)-2-thienyl]methyl}-1H-pyrazol-3-yl)carbonyl]pyrimidin-4-yl}amino)cyclopentyl]methyl sulfamate] | < 10 | 96 |
| NS(=O)(=O)OC[C@H]1C[C@@H](Nc2ncncc2C(=O)c2cc(Cl)n(Cc3cccc(C(F)(F)F)c3)c2)[C@@H](F)[C@@H]1O [Compound I-184, [(1R,2R,3R,4R)-4-{[5-({5-chloro-1-[3-(trifluoromethyl)benzyl]-1H-pyrrol-3-yl}carbonyl)pyrimidin-4-yl]amino}-3-fluoro-2-hydroxycyclopentyl]methyl sulfamate] | < 10 | 97 |
| NS(=O)(=O)OC[C@H]1C[C@@H](Nc2ncncc2C(=O)c2ccn(Cc3ccc(F)cc3Cl)n2)C[C@@H]1O [Compound I-185, {(1R,2S,4R)-4-[(5-{[1-(2-chloro-4-fluorobenzyl)-1H-pyrazol-3-yl]carbonyl}pyrimidin-4-yl)amino]-2-hydroxycyclopentyl}methyl sulfamate] | < 10 | 91 |
| Cc1cc(C(=O)c2cncnc2N[C@@H]2C[C@H](COS(N)(=O)=O)[C@@H](O)[C@@H]2F)nn1Cc1cccc(Br)c1 [Compound I-186, {(1R,2R,3R,4R)-4-[(5-{[1-(3-Bromobenzyl)-5-methyl-1H-pyrazol-3-yl]carbonyl}pyrimidin-4-yl)amino]-3-fluoro-2-hydroxycyclopentyl}methyl sulfamate] | < 10 | > 99 |
| CCc1cc(C(=O)c2cncnc2N[C@@H]2C[C@H](COS(N)(=O)=O)[C@@H](O)[C@@H]2F)cn1Cc1cccc(Br)c1 [Compound I-187, {(1R,2R,3R,4R)-4-[(5-{[1-(3-Bromobenzyl)-5-ethyl-1H-pyrrol-3-yl]carbonyl}pyrimidin-4-yl)amino]-3-fluoro-2-hydroxycyclopentyl}methyl sulfamate] | < 10 | 99 |
| COc1cccc(Cn2ccc(C(=O)c3cncnc3N[C@@H]3C[C@H](COS(N)(=O)=O)[C@@H](O)[C@@H]3F)c2)n1 [Compound I-188, [(1R,2R,3R,4R)-3-fluoro-2-hydroxy-4-{[5-({1-[(6-methoxypyridin-2-yl)methyl]-1H-pyrrol-3-yl}carbonyl)pyrimidin-4-yl]amino}cyclopentyl]methyl sulfamate] | < 10 | 98 |
| NS(=O)(=O)OC[C@H]1C[C@@H](Nc2ncncc2C(=O)c2ccn(Cc3ccc(Cl)s3)c2)[C@@H](F)[C@@H]1O [Compound I-189, [(1R,2R,3R,4R)-4-{[5-({1-[(5-chloro-2-thienyl)methyl]-1H-pyrrol-3-yl}carbonyl)pyrimidin-4-yl]amino}-3-fluoro-2-hydroxycyclopentyl]methyl sulfamate] | < 10 | 100 |
| NS(=O)(=O)OC[C@H]1C[C@@H](Nc2ncncc2C(=O)c2ccn(Cc3ccc(F)c(F)c3)n2)[C@@H](O)[C@@H]1O [Compound I-190, {(1R,2R,3R,4R)-4-[(5-{[1-(3,4-difluorobenzyl)-1H-pyrazol-3-yl]carbonyl}pyrimidin-4-yl)amino]-2,3-dihydroxycyclopentyl}methyl sulfamate] | < 10 | 98 |
| NS(=O)(=O)OC[C@H]1C[C@@H](Nc2ncncc2C(=O)c2ccn(Cc3ccc(Cl)cc3F)n2)C[C@@H]1O [Compound I-191, {(1R,2S,4R)-4-[(5-{[1-(4-chloro-2-fluorobenzyl)-1H-pyrazol-3-yl]carbonyl}pyrimidin-4-yl)amino]-2-hydroxycyclopentyl}methyl sulfamate] | < 10 | 92 |
| NS(=O)(=O)OC[C@H]1C[C@@H](Nc2ncncc2C(=O)c2ccn(Cc3ccccc3Cl)n2)[C@H](O)[C@@H]1O [Compound I-193, ((1R,2R,3S,4R)-4-((5-(1-(2-Chlorobenzyl)-1H-pyrazole-3-carbonyl)pyrimidin-4-yl)amino)-2,3-dihydroxycyclopentyl)methyl sulfamate] | < 10 | 99 |
| NS(=O)(=O)OC[C@H]1C[C@@H](Nc2ncncc2C(=O)c2ccn(Cc3ccc(F)cc3Cl)n2)[C@H](O)[C@@H]1O [Compound I-194, {(1R,2R,3S,4R)-4-[(5-{[1-(2-chloro-4-fluorobenzyl)-1H-pyrazol-3-yl]carbonyl}pyrimidin-4-yl)amino]-2,3-dihydroxycyclopentyl}methyl sulfamate] | < 10 | 100 |
| CC#CCn1ccc(C(=O)c2cncnc2N[C@@H]2C[C@H](COS(N)(=O)=O)[C@@H](O)[C@@H]2F)c1 [Compound I-195, {(1R,2R,3R,4R)-4-[(5-{[1-(but-2-yn-1-yl)-1H-pyrrol-3-yl]carbonyl}pyrimidin-4-yl)amino]-3-fluoro-2-hydroxycyclopentyl}methyl sulfamate] | 10 to 100 | 90 |
| NS(=O)(=O)OC[C@H]1C[C@@H](Nc2ncncc2C(=O)c2ccn(C#Cc3ccccc3)c2)C[C@@H]1O [Compound I-196, {(1R,2S,4R)-2-Hydroxy-4-[(5-{[1-(phenylethynyl)-1H-pyrrol-3-yl]carbonyl}pyrimidin-4-yl)amino]cyclopentyl}methyl sulfamate] | 100 to 1000 | 33 |
| Cc1cc(C(=O)c2cncnc2N[C@@H]2C[C@H](COS(N)(=O)=O)[C@@H](O)[C@@H]2F)nn1Cc1ccc(C(F)(F)F)o1 [Compound I-197, [(1R,2R,3R,4R)-3-Fluoro-2-hydroxy-4-({5-[(5-methyl-1-{[5-(trifluoromethyl)-2-furyl]methyl}-1H-pyrazol-3-yl)carbonyl]pyrimidin-4-yl}amino)cyclopentyl]methyl sulfamate] | < 10 | 99 |
| Cc1ccc(Cn2ccc(C(=O)c3cncnc3N[C@@H]3C[C@H](COS(N)(=O)=O)[C@@H](O)[C@H]3O)n2)cc1F [Compound I-198, {(1R,2R,3S,4R)-4-[(5-{[1-(3-fluoro-4-methylbenzyl)-1H-pyrazol-3-yl]carbonyl}pyrimidin-4-yl)amino]-2,3-dihydroxycyclopentyl}methyl sulfamate] | < 10 | > 99 |
| NS(=O)(=O)OC[C@H]1C[C@@H](Nc2ncncc2C(=O)c2ccn(CC#Cc3ccco3)n2)C[C@@H]1O [Compound I-199, [(1R,2S,4R)-4-{[5-({1-[3-(2-furyl)prop-2-yn-1-yl]-1H-pyrazol-3-yl}carbonyl)pyrimidin-4-yl]amino}-2-hydroxycyclopentyl]methyl sulfamate] | < 10 | 94 |
| NS(=O)(=O)OC[C@H]1C[C@@H](Nc2ncncc2C(=O)c2ccn(/C=C\c3ccccc3)c2)C[C@@H]1O [Compound I-200, [(1R,2S,4R)-2-Hydroxy-4-{[5-({1-[(Z)-2-phenylvinyl]-1H-pyrrol-3-yl}carbonyl)pyrimidin-4-yl]amino}cyclopentyl]methyl sulfamate] | < 10 | 98 |
| NS(=O)(=O)OC[C@H]1C[C@@H](Nc2ccncc2C(=O)c2ccn(Cc3cccc(Cl)c3)c2)C[C@@H]1O [Compound I-201, {(1R,2S,4R)-4-[(3-{[1-(3-chlorobenzyl)-1H-pyrrol-3-yl]carbonyl}pyridin-4-yl)amino]-2-hydroxycyclopentyl}methyl sulfamate] | < 10 | 98 |
